Measurements as given in ChEMBL document CHEMBL1132032, “3-Acyloxy-2-phenalkylpropyl amides and esters of homovanillic acid as novel vanilloid receptor agonists” (Bioorg Med Chem Lett, 1999).
Calls of active or inactive are those of the source. The rule behind the calls is not given here.

Columns and labels:
[1] = molecular target: T1, Vanilloid receptor (Rattus norvegicus) (UniProt Q9ERZ8+Q9WUD2+O35433); assay: Cation influx relative to capsaicin (CAP) in cultured neonatal rat dorsal root ganglia (No response); type: functional
[2] = molecular target: Transient receptor potential cation channel subfamily V member 1 (Rattus norvegicus, UniProt O35433); assay: In vitro binding affinity towards vanilloid receptor by [3H]RTX displacement.
[3] = molecular target: T1, Vanilloid receptor (Rattus norvegicus); assay: Cation influx relative to capsaicin (CAP) in cultured neonatal rat dorsal root ganglia (W = Weaker than CAP); type: functional
[4] = molecular target: T1, Vanilloid receptor (Rattus norvegicus); assay: Cation influx relative to capsaicin (CAP) in cultured neonatal rat dorsal root ganglia (++ = 10xCAP); type: functional
[5] = molecular target: T1, Vanilloid receptor (Rattus norvegicus); assay: Cation influx relative to capsaicin (CAP) in cultured neonatal rat dorsal root ganglia (+ = similar to CAP); type: functional
[6] = molecular target: T1, Vanilloid receptor (Rattus norvegicus)
Description: Cation influx relative to capsaicin (CAP) in cultured neonatal rat dorsal root ganglia (+++ = 100xCAP)

T1 sequence (O35433 whole entry, looked up): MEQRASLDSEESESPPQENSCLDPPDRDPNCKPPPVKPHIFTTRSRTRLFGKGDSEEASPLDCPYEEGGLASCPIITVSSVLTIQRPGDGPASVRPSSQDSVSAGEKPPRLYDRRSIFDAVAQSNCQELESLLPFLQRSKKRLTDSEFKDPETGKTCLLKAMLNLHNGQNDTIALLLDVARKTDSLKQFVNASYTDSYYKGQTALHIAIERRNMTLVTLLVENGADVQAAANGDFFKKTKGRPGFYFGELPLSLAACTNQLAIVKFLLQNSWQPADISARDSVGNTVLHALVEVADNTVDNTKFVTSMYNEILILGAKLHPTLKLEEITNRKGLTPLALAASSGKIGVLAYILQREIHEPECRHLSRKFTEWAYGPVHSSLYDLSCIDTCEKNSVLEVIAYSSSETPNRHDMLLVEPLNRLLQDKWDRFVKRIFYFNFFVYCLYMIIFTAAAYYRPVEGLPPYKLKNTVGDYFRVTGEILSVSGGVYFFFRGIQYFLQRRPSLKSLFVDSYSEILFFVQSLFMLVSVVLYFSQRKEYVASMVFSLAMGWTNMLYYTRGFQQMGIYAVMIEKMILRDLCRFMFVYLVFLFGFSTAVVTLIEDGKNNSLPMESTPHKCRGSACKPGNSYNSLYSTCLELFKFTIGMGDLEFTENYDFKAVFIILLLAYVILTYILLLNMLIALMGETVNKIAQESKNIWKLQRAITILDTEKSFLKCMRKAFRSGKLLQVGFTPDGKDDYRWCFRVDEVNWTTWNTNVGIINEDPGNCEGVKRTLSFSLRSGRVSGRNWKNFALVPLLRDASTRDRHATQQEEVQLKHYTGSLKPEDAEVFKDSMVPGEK
T1 sequence (Q9ERZ8 whole entry, looked up): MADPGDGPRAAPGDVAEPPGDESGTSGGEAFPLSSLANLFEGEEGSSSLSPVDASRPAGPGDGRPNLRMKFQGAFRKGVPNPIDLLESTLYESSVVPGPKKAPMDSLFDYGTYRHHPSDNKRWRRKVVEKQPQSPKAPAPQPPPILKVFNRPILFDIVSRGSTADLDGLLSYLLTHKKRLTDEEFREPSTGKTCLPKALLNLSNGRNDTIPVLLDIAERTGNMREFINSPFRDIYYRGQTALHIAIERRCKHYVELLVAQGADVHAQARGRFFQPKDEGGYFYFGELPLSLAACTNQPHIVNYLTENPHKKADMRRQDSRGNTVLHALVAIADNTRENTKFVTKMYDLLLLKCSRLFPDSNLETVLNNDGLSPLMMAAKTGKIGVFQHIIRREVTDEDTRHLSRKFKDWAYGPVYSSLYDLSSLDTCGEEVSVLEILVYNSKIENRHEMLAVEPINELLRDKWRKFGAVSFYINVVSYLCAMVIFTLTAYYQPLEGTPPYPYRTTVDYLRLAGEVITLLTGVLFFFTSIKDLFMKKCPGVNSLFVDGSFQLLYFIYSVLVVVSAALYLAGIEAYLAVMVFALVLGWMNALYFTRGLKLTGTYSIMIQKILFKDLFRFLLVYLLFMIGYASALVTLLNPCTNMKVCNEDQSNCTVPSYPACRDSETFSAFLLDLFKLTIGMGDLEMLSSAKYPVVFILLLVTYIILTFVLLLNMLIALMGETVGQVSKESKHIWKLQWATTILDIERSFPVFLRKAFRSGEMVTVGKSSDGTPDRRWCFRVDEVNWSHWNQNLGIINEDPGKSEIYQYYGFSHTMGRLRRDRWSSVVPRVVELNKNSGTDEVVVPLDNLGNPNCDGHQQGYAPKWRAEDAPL
T1 sequence (Q9WUD2 whole entry, looked up): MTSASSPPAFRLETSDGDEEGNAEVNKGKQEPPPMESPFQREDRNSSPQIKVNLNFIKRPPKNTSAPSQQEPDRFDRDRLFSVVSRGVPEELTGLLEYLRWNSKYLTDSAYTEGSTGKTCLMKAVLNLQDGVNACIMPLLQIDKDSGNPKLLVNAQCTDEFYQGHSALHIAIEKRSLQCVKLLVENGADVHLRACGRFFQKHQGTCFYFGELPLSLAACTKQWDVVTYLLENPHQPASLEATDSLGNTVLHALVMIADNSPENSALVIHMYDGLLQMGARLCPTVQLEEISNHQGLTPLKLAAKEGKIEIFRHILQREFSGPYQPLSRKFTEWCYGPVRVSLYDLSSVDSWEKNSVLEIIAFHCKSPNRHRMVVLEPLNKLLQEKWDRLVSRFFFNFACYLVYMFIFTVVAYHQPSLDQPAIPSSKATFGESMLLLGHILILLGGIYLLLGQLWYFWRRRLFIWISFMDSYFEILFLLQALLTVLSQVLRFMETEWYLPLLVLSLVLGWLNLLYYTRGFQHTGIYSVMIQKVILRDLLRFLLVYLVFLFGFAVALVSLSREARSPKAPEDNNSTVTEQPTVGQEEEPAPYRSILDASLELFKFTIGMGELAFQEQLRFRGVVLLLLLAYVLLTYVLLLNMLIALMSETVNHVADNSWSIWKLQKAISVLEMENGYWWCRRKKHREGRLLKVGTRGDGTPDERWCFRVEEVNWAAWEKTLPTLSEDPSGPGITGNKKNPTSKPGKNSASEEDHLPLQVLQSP
Sequence of Transient receptor potential cation channel subfamily V member 1 (O35433 whole entry): as the sequence (O35433 whole entry, looked up) above

| Structure (SMILES) | Cation influx [1] | Ki [2] [µM] | other results |
| --- | --- | --- | --- |
| COc1cc(CC(=O)OC/C(=C/COCc2ccccc2)COC(C)=O)ccc1O | inactive | > 100 |  |
| COc1cc(CC(=O)NCC(COC(C)=O)Cc2ccccc2)ccc1O (stereo unspecified) |  | 19.3 | Cation influx [3]: Partially active |
| COC(=O)/C=C/C(CNC(=O)Cc1ccc(O)c(OC)c1)Cc1ccccc1 (stereo unspecified) |  | 13.5 | Cation influx [3]: Partially active |
| COc1cc(CC(=O)NCC(CCc2ccccc2)COC(=O)C(C)(C)C)ccc1O (stereo unspecified) |  | 0.295 | Cation influx [4]: Active |
| COc1cc(CC(=O)NCC(COC(C)=O)OCc2ccccc2)ccc1O (stereo unspecified) | inactive | > 100 |  |
| COc1cc(CC(=O)NCC(/C=C/C(=O)OC(C)(C)C)Cc2ccccc2)ccc1O (stereo unspecified) |  | 0.48 | Cation influx [4]: Active |
| COc1cc(CC(=O)OCC(COCc2ccccc2)COC(C)=O)ccc1O (stereo unspecified) | inactive | > 100 |  |
| COc1cc(CC(=O)OC/C(=C\COCc2ccccc2)COC(C)=O)ccc1O | inactive | > 100 |  |
| COc1cc(CC(=O)NCC(COC(=O)C(C)(C)C)Cc2ccccc2)ccc1O (stereo unspecified) |  | 0.404 | Cation influx [4]: Active |
| COc1cc(CC(=O)NCCCc2ccc(C)c(C)c2)ccc1OCCN [DAVASAICIN] |  | 1.4 | Cation influx [5]: Active |
| COc1cc(CC(=O)OCC(COC(C)=O)Cc2ccccc2)ccc1O (stereo unspecified) | inactive | > 100 |  |
| C=C(C)[C@]12C[C@@H](C)[C@@]34O[C@](Cc5ccccc5)(O[C@@H]1[C@@H]3C=C(COC(=O)Cc1ccc(O)c(OC)c1)C[C@]1(O)C(=O)C(C)=C[C@@H]41)O2 [RESINIFERATOXIN] |  | 2.3e-05 | Cation influx [6]: Active |
| COc1cc(CC(=O)NCC(COCc2ccccc2)COC(C)=O)ccc1O (stereo unspecified) | inactive | 78 |  |
| COc1cc(CC(=O)NC/C(=C\Cc2ccccc2)COC(=O)C(C)(C)C)ccc1O |  | 1.22 | Cation influx [4]: Active |
| COc1cc(CC(=O)OCC(COC(C)=O)OCc2ccccc2)ccc1O (stereo unspecified) | inactive | > 100 |  |
| COc1cc(CC(=O)NC/C(=C\Cc2ccccc2)COC(C)=O)ccc1O |  | 12.9 | Cation influx [3]: Partially active |
| COc1cc(CC(=O)NC/C(=C/Cc2ccccc2)COC(C)=O)ccc1O |  | 29.2 | Cation influx [3]: Partially active |
| COc1cc(CC(=O)NCC(CCc2ccccc2)COC(C)=O)ccc1O (stereo unspecified) |  | 45.2 | Cation influx [3]: Partially active |
